Results published in ChEMBL document CHEMBL1201862, “PubChem BioAssay data set” (2004).
Values joined by “and” are separate entries in the source; they are usually repeats but may differ in a detail not shown here. Identical values can stand only once.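 96-well plates; 48 h exposure; 5 concentrations. Endpoints by linear interpolation between flanking doses. Not reached: highest tested concentration assigned. GI50: concentration for 50% inhibition of growth.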 Active and inactive are the calls of the source. Cut-off read from the data, not from the text of the source: active = GI50 up to about 1.1 µM and inactive = higher.

Assays:
Assay in all cases: NCI anticancer screen, dose series, 48 h
[1] = tested on: OVCAR-5
[2] = tested on: RPMI-8226
[3] = tested on: CAKI-1
[4] = tested on: K562
[5] = tested on: M14
[6] = tested on: Hs-578T
[7] = tested on: MDA-MB-231
[8] = tested on: UO-31
[9] = tested on: HT-29
[10] = tested on: SF-268
[11] = tested on: IGROV-1
[12] = tested on: SR
[13] = tested on: OVCAR-4
[14] = tested on: SF-539
[15] = tested on: NCI-H226
[16] = tested on: T47D
[17] = tested on: SK-MEL-2
[18] = tested on: DU-145
[19] = tested on: SW-620
[20] = tested on: SK-OV-3

Measured: GI50

CC1=NN(C(=O)CC(=O)Nc2ccccc2Cl)C(=O)C1/N=N\c1ccc(S(=O)(=O)c2ccc(/N=N/C3C(=O)N(C(=O)CC(=O)Nc4ccccc4Cl)N=C3C)cc2)cc1 (stereo not given)
inactive: [1] > 100 µM | [2] > 100 µM | [3] > 100 µM | [4] > 100 µM | [5] > 100 µM | [6] > 100 µM | [7] 30.5 µM | [8] > 100 µM | [9] > 100 µM | [10] > 100 µM | [11] > 100 µM | [12] > 100 µM | [13] > 100 µM | [14] > 100 µM | [15] > 100 µM | [16] > 100 µM | [17] > 100 µM | [18] > 100 µM | [19] > 100 µM | [20] > 100 µM

C[C@@H]1CCC([C@@H](C)[C@H]2CC[C@H]3[C@@H]4CC[C@H]5C[C@@H](O)CC[C@]5(C)[C@H]4CC[C@]23C)=NC1
inactive: [1] 24.4 µM | [2] 2.77 µM | [3] 12.7 µM | [4] 3.68 µM | [5] 4.73 µM | [6] 33.7 µM | [7] 30 µM | [8] 10.4 µM | [9] 2.45 µM | [10] 12.6 µM | [11] 4.71 µM | [12] 12 µM | [13] 7.46 µM | [14] 15 µM | [15] > 29.8 µM | [16] 12.7 µM | [17] 14.1 µM | [18] > 47 µM | [19] 40.8 µM | [20] 30.9 µM

COc1ccc2c(c1)CC[C@@H]1[C@@H]2CC[C@]2(C)/C(=N/OCCN3CCCCC3)CC[C@@H]12
inactive: [1] 5.33 µM | [2] 2.62 µM | [3] 1.94 µM | [4] 2.79 µM | [5] 2.42 µM | [6] 6.76 µM | [7] 8.41 µM | [8] 3.19 µM | [9] 1.66 µM | [10] 9.2 µM | [11] 1.95 µM | [12] 2.44 µM | [13] 12.2 µM | [14] 2.77 µM | [15] 5.43 µM | [16] 5.46 µM | [17] 6.07 µM | [18] 3.85 µM | [19] 5.11 µM | [20] 10.3 µM

COC(=O)N/N=C(/c1nc2ccc([N+](=O)[O-])cc2nc1O)C(O)c1ccc(OC)c(OC)c1 (stereo not given)
inactive: [1] > 100 µM | [2] 41.9 µM | [3] > 100 µM | [4] 55.2 µM | [5] > 100 µM | [6] 59 µM | [7] 64.3 µM | [8] > 100 µM | [9] > 72.9 µM | [10] > 81.1 µM | [11] > 100 µM | [12] 19.5 µM | [13] > 100 µM | [14] > 100 µM | [15] > 100 µM | [16] 80 µM | [17] > 100 µM | [18] > 100 µM | [19] > 100 µM | [20] > 100 µM

COC(=O)c1ccccc1CC1Cc2ccc3c(c2C1=O)CCC3 (stereo not given)
inactive: [1] > 100 µM | [2] 30.9 µM | [3] 55.1 µM | [4] 33.2 µM | [5] 39.5 µM | [6] 43.3 µM | [7] 46.2 µM | [8] 49.4 µM | [9] 27.9 µM | [10] > 100 µM | [11] > 100 µM | [12] 31 µM | [13] 29.9 µM | [14] > 100 µM | [15] 77.8 µM | [16] 19.7 µM | [17] 43.9 µM | [18] > 100 µM | [19] 99.1 µM | [20] > 100 µM

COc1cc([C@H]2OC[C@H]3[C@@H]2CO[C@@H]3c2cc(OC)c3c(c2)OCO3)cc(OC)c1OC
inactive: [1] > 100 µM | [2] 28 µM and 35 µM | [3] 52.7 µM and 25 µM | [4] 39.4 µM and 73.3 µM | [5] 65.3 µM | [6] 51.3 µM and 59.3 µM | [7] > 100 µM and 50.4 µM | [8] 44.6 µM and 38.3 µM | [9] 37.3 µM and 54.6 µM | [10] 68.2 µM and 59.2 µM | [11] 92.3 µM and 66.4 µM | [12] 17.3 µM and 42.1 µM | [13] 48.5 µM and 43.7 µM | [14] > 100 µM | [15] 43.5 µM and 47.4 µM | [16] 34.2 µM and 37.9 µM | [17] > 100 µM | [18] 81.3 µM | [19] > 100 µM | [20] > 100 µM
